Several values for one entry are separate records, joined by “and”; a condition that tells them apart may be missing. Equal entries are not always repeated. Records with an inconclusive call do not appear.
System: BDF1 mice, colon carcinoma 38 sc, T/C %
Test: NCI In Vivo Anticancer Drug Screen. Data for tumor model Colon Carcinoma 38 (subcutaneous) in B6D2F1 (BDF1) mice
Procedure, shortened: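 Mice with transplanted tumors are treated with compound or vehicle. Survival or tumor size is then measured in both groups. The ratio of treated to control gives the reported figure.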

[1] = endpoint: median tumor weight (est.), dose: 25.0 mg/kg/injection, schedule: Q07DX002 (ip), vehicle: Klucel (hydroxypropylcellulose) (HPC), higher = larger tumour
[2] = endpoint: median tumor weight (est.), dose: 50.0 mg/kg/injection, schedule: Q07DX002 (ip), vehicle: Klucel (hydroxypropylcellulose) (HPC), higher = larger tumour
[3] = endpoint: median tumor weight (est.), dose: 100.0 mg/kg/injection, schedule: Q07DX002 (ip), vehicle: Klucel (hydroxypropylcellulose) (HPC), higher = larger tumour
[4] = endpoint: median tumor weight (est.), dose: 200.0 mg/kg/injection, schedule: Q07DX002 (ip), vehicle: Klucel (hydroxypropylcellulose) (HPC), higher = larger tumour
[5] = endpoint: median tumor weight (est.), dose: 400.0 mg/kg/injection, schedule: Q07DX002 (ip), vehicle: Klucel (hydroxypropylcellulose) (HPC), higher = larger tumour

CC(=O)Oc1ccccc1O
T/C (endpoint: median tumor weight (est.), dose: 50.0 mg/kg/injection, schedule: Q07DX002 (ip), vehicle: saline + Tween-80 + alcohol, higher = larger tumour): 158 % of control

O=[N+]([O-])c1nccn1CC(O)CO (stereo unspecified)
T/C (endpoint: median tumor weight (est.), dose: 100.0 mg/kg/injection, schedule: Q07DX002 (ip), vehicle: saline, higher = larger tumour): 120 % of control
T/C (endpoint: median tumor weight (est.), dose: 800.0 mg/kg/injection, schedule: Q07DX002 (ip), vehicle: saline, higher = larger tumour): 105 % of control

C[C@]12CC[C@H]3[C@@H](CCC4=C[C@@H](OC5OCC(OC6OC(CO)C(O)C(O)C6O)C(O)C5O)CC[C@@]43C=O)[C@@]1(O)CCC2C1=CC(=O)OC1 (stereo partly specified)
T/C (endpoint: median tumor weight (est.), dose: 0.31 mg/kg/injection, schedule: Q07DX003 (ip), vehicle: Klucel (hydroxypropylcellulose) (HPC), higher = larger tumour): 106 % of control
T/C (endpoint: median tumor weight (est.), dose: 1.25 mg/kg/injection, schedule: Q07DX003 (ip), vehicle: Klucel (hydroxypropylcellulose) (HPC), higher = larger tumour): 53 % of control
T/C (endpoint: median tumor weight (est.), dose: 2.5 mg/kg/injection, schedule: Q07DX003 (ip), vehicle: Klucel (hydroxypropylcellulose) (HPC), higher = larger tumour): 102 % of control
T/C (endpoint: median tumor weight (est.), dose: 5.0 mg/kg/injection, schedule: Q07DX003 (ip), vehicle: Klucel (hydroxypropylcellulose) (HPC), higher = larger tumour): 105 % of control
T/C (endpoint: median tumor weight (est.), dose: 10.0 mg/kg/injection, schedule: Q07DX003 (ip), vehicle: Klucel (hydroxypropylcellulose) (HPC), higher = larger tumour): 95 % of control

COc1cccc2c1C(=O)c1c(O)c3c(c(O)c1C2=O)C[C@@](O)(C(C)=O)C[C@@H]3OC1CC(N(Cc2ccccc2)Cc2ccccc2)C(O)C(C)O1 (stereo partly specified)
T/C (endpoint: median survival time, dose: 43.0 mg/kg/injection, schedule: Q07DX003 (sc), vehicle: saline with Tween-80, higher = longer survival): 152 % of control
T/C (endpoint: median survival time, dose: 69.0 mg/kg/injection, schedule: Q07DX003 (sc), vehicle: saline with Tween-80, higher = longer survival): 170 % of control
T/C (endpoint: median survival time, dose: 112.0 mg/kg/injection, schedule: Q07DX003 (sc), vehicle: saline with Tween-80, higher = longer survival): 220 % of control
T/C (endpoint: median survival time, dose: 180.0 mg/kg/injection, schedule: Q07DX003 (sc), vehicle: saline with Tween-80, higher = longer survival): 254 % of control
T/C (endpoint: median tumor weight (est.), dose: 6.75 mg/kg/injection, schedule: Q07DX002 (ip), vehicle: distilled water + Tween-80, higher = larger tumour): 108 % of control
T/C (endpoint: median tumor weight (est.), dose: 13.5 mg/kg/injection, schedule: Q07DX002 (ip), vehicle: distilled water + Tween-80, higher = larger tumour): 57 % of control
T/C (endpoint: median tumor weight (est.), dose: 27.0 mg/kg/injection, schedule: Q07DX002 (ip), vehicle: distilled water + Tween-80, higher = larger tumour): 13 % of control
T/C (endpoint: median tumor weight (est.), dose: 27.0 mg/kg/injection, schedule: Q07DX002 (ip), vehicle: saline with Tween-80, higher = larger tumour): 39 % of control and 50 % of control
T/C (endpoint: median tumor weight (est.), dose: 54.0 mg/kg/injection, schedule: Q07DX002 (ip), vehicle: saline with Tween-80, higher = larger tumour): 8 % of control
T/C (endpoint: median tumor weight (est.), dose: 108.0 mg/kg/injection, schedule: Q07DX002 (ip), vehicle: saline with Tween-80, higher = larger tumour): 3 % of control

C/C=C/c1cc2c(c(=O)o1)C(=O)[C@@H](O)[C@H](C)O2
T/C (endpoint: median tumor weight (est.), dose: 12.5 mg/kg/injection, schedule: Q07DX002 (ip), vehicle: saline with Tween-80, higher = larger tumour): 73 % of control and 95 % of control
T/C (endpoint: median tumor weight (est.), dose: 25.0 mg/kg/injection, schedule: Q07DX002 (ip), vehicle: saline with Tween-80, higher = larger tumour): 61 % of control and 80 % of control
T/C (endpoint: median tumor weight (est.), dose: 50.0 mg/kg/injection, schedule: Q07DX002 (ip), vehicle: saline with Tween-80, higher = larger tumour): 72 % of control and 76 % of control
T/C (endpoint: median tumor weight (est.), dose: 200.0 mg/kg/injection, schedule: Q07DX002 (ip), vehicle: saline with Tween-80, higher = larger tumour): 71 % of control and 86 % of control

COc1ccc(C2Oc3cc(OC)ccc3C(=O)C2c2ccccc2)cc1 (stereo unspecified)
T/C (endpoint: median tumor weight (est.), dose: 43.0 mg/kg/injection, schedule: Q07DX002 (ip), vehicle: other, higher = larger tumour): 35 % of control
T/C (endpoint: median tumor weight (est.), dose: 72.0 mg/kg/injection, schedule: Q07DX002 (ip), vehicle: other, higher = larger tumour): 56 % of control
T/C (endpoint: median tumor weight (est.), dose: 120.0 mg/kg/injection, schedule: Q07DX002 (ip), vehicle: other, higher = larger tumour): 41 % of control
T/C (endpoint: median tumor weight (est.), dose: 200.0 mg/kg/injection, schedule: Q07DX002 (ip), vehicle: other, higher = larger tumour): 34 % of control
T/C (endpoint: median tumor weight (est.), dose: 333.33 mg/kg/injection, schedule: Q07DX002 (ip), vehicle: other, higher = larger tumour): 82 % of control

O=[N+]([O-])/C=C\c1ccc2c(c1)OCO2
T/C (endpoint: median tumor weight (est.), dose: 12.5 mg/kg/injection, schedule: Q07DX002 (ip), vehicle: Klucel (hydroxypropylcellulose) (HPC), higher = larger tumour): 364 % of control
T/C [1]: 364 % of control
T/C (endpoint: median tumor weight (est.), dose: 25.0 mg/kg/injection, schedule: Q07DX003 (ip), vehicle: Klucel (hydroxypropylcellulose) (HPC), higher = larger tumour): 64 % of control and 71 % of control
T/C [2]: 185 % of control
T/C [3]: 93 % of control
T/C (endpoint: median tumor weight (est.), dose: 100.0 mg/kg/injection, schedule: Q07DX003 (ip), vehicle: Klucel (hydroxypropylcellulose) (HPC), higher = larger tumour): 88 % of control and 92 % of control
T/C [4]: 77 % of control
T/C (endpoint: median tumor weight (est.), dose: 200.0 mg/kg/injection, schedule: Q07DX003 (ip), vehicle: Klucel (hydroxypropylcellulose) (HPC), higher = larger tumour): 56 % of control
T/C [5]: 102 % of control

C=C(C)[C@@H]1CCc2c(O)c(O)c(=O)cc(C)c2C1
T/C [1]: 102 % of control
T/C [2]: 64 % of control
T/C [3]: 85 % of control
T/C [4]: 96 % of control
T/C [5]: 102 % of control

Reference: PubChem BioAssay AID212 (DTP/NCI, 2004)
